Data published in US20250242040A1, “ALBUMIN CONJUGATE, PREPARATION METHOD THEREFOR AND USE THEREOF” (Suzhou KangDeRui Pharmaceutical, Ltd., priority 2023, published 2025).
Non-standard residues stand in square brackets, D forms with d. Residues, ends and D or L forms follow the SMILES beside them. Dolaproine = CO[C@@H]([C@@H]1CCCN1)[C@@H](C)C(=O)O; Dil = CC[C@H](C)[C@H](NC)[C@@H](CC(=O)O)OC; NMeV = CN[C@H](C(=O)O)C(C)C

Test system: A-549 cells
Assay: Apoptosis assay of A-549 cells by flow cytometry (in vitro cytotoxic activity)
Format: cell-based
Procedure: The apoptosis of A-549 cells was analyzed by flow cytometry (FIG. 2).

`CC[C@H](C)[C@@H]([C@@H](CC(=O)N1CCC[C@H]1[C@H](OC)[C@@H](C)C(=O)N[C@@H](Cc1ccccc1)C(=O)O)OC)N(C)C(=O)[C@@H](NC(=O)[C@@H](NC)C(C)C)C(C)C` [MMAF, monomethyl auristatin F] (H-[NMeV]V[Dil][Dolaproine]F-OH) showed an apoptosis efficiency of 12.3%.
